Test results: patent US20080177067A1, “Crystal forms of 9-hydroxy-risperidone (paliperidone)” (priority 2006, published 2008)

How the values were obtained:
[1] = Water content measured by KF titration; type: physicochemical
[2] = Weight loss measured by TGA; type: physicochemical

water content, as measured by KF titration [1]	weight loss, as measured by TGA ([2]; between 25-168° C.)	weight loss, as measured by TGA ([2]; between 25-155° C.)	weight loss, as measured by TGA ([2]; between 25-145° C.)	Structure (SMILES)
about 0.2%	about 19.2%			Cc1nc2n(c(=O)c1CCN1CCC(c3noc4cc(F)ccc34)CC1)CCCC2O (centres unmarked) [Form III, 3-[2-[4-(6-fluorobenzo[d]isoxazol-3-yl)-1-piperidyl]ethyl]-7-hydroxy-4-methyl-1,5-diazabicyclo[4.4.0]deca-3,5-dien-2-one]
about 0.3%		about 0.1%		Cc1nc2n(c(=O)c1CCN1CCC(c3noc4cc(F)ccc34)CC1)CCCC2O (centres unmarked) [Form V, 3-[2-[4-(6-fluorobenzo[d]isoxazol-3-yl)-1-piperidyl]ethyl]-7-hydroxy-4-methyl-1,5-diazabicyclo[4.4.0]deca-3,5-dien-2-one]
about 0.5%			about 0.4%	Cc1nc2n(c(=O)c1CCN1CCC(c3noc4cc(F)ccc34)CC1)CCCC2O (centres unmarked) [Form II, 3-[2-[4-(6-fluorobenzo[d]isoxazol-3-yl)-1-piperidyl]ethyl]-7-hydroxy-4-methyl-1,5-diazabicyclo[4.4.0]deca-3,5-dien-2-one]
about 0.5%	about 0.6%			Cc1nc2n(c(=O)c1CCN1CCC(c3noc4cc(F)ccc34)CC1)CCCC2O (centres unmarked) [Form I, 3-[2-[4-(6-fluorobenzo[d]isoxazol-3-yl)-1-piperidyl]ethyl]-7-hydroxy-4-methyl-1,5-diazabicyclo[4.4.0]deca-3,5-dien-2-one]
